Active and inactive are the calls of the source.
Legend:
[1] = target: T1, Aldehyde dehydrogenase X, mitochondrial (Homo sapiens) (UniProt P30837); experiment: Effect on recombinant human ALDH1B1 using propionaldehyde as substrate at 20 uM preincubated for 2 mins with NAD+ followed by substrate addition by UV-Vis spectrophotometric analysis
T1 sequence (whole entry): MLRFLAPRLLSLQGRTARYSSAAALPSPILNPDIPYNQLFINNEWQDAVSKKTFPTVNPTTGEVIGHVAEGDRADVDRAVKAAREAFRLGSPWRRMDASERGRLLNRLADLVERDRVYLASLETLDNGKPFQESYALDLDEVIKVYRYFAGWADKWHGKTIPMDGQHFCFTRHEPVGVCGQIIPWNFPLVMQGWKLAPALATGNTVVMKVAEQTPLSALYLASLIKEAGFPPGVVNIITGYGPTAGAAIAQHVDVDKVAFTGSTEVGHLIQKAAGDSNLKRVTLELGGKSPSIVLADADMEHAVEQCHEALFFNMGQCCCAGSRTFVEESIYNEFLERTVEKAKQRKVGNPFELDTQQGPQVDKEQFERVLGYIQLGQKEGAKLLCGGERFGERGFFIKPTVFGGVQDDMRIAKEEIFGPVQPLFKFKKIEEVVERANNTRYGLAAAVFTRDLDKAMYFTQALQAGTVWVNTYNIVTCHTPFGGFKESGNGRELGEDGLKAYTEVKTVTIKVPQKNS

[2] = target: T2, Delta-1-pyrroline-5-carboxylate dehydrogenase, mitochondrial (Homo sapiens) (UniProt P30038); experiment: Effect on human ALDH4A1 at 20 uM preincubated for 2 mins with NAD+ followed by aldehyde substrate addition
T2 sequence (whole entry): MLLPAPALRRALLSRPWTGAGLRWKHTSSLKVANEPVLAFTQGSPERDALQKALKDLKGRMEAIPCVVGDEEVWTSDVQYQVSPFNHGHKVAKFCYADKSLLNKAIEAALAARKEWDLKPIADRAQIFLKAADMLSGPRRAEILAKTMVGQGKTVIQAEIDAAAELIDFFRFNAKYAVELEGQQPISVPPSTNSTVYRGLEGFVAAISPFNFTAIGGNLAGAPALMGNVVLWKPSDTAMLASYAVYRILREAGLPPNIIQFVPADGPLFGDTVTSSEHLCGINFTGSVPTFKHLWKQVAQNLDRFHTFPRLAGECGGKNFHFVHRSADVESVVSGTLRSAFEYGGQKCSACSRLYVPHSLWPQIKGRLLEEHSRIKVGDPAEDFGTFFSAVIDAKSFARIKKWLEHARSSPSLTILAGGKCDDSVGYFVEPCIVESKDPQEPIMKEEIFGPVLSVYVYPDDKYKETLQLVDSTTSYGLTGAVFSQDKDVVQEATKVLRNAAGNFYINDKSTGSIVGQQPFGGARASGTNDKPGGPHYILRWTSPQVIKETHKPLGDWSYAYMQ

[3] = target: T3, Cytosolic 10-formyltetrahydrofolate dehydrogenase (Rattus norvegicus) (UniProt P28037); experiment: Effect on rat carboxy terminal ALDH domain of ALDH1L1 at 20 uM preincubated for 2 mins with NAD+ followed by aldehyde substrate addition
T3 sequence (whole entry): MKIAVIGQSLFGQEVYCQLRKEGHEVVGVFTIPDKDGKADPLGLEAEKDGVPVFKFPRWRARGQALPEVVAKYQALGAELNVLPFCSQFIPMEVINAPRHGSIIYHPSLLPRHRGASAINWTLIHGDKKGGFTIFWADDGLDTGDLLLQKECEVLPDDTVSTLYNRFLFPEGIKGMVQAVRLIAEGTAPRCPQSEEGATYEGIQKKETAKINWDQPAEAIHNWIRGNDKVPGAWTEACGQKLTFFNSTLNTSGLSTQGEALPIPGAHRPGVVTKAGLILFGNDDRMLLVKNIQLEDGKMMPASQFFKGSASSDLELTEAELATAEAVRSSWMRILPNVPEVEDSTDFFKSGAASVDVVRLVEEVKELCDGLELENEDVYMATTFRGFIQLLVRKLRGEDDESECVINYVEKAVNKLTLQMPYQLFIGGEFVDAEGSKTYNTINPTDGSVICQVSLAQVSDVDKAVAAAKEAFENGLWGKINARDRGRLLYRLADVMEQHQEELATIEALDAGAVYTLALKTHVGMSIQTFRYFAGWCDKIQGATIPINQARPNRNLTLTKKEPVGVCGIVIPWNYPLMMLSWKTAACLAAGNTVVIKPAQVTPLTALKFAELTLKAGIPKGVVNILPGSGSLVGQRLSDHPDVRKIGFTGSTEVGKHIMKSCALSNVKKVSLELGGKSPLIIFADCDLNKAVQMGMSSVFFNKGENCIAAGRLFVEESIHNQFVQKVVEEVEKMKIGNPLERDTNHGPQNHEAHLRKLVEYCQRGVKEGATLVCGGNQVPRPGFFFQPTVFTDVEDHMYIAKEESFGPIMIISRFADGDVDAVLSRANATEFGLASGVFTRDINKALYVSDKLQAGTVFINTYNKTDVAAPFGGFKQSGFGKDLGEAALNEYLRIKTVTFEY

Measured: Activity

CC(C)CCn1c(CN2CCN(C(=O)c3ccco3)CC2)nc2c1c(=O)n(C)c(=O)n2C
inactive: all assays above

From ChEMBL document CHEMBL3414499, “Characterization of two distinct structural classes of selective aldehyde dehydrogenase 1A1 inhibitors” (J Med Chem, 2015)
